Measurements published in US7671084B2 (Wyeth, priority 2004, dated 2010).
Structures can show the parent of a compound that is named as a salt. Where two headings read alike, the source gives them in different places.

What was measured:
human ERβ = target: T1, human ERβ (Homo sapiens, UniProt Q92731); assay: Competition with [3H]-17β-estradiol for binding to ERβ; settings: ligand binding domain of human ERβ in E. coli crude lysate, 2 nM [3H]-17β-estradiol, 5-15 hours at room temperature
T1 construct: made in house; host or cells: E. coli (crude lysate)
Description: Representative examples of the invention were evaluated for their ability to compete with 17β-estradiol for both ERα and ERβ. This test procedure provides the methodology for one to determine whether a particular compound binds to the estrogen receptor (and is therefore “estrogenic”) and whether there is selectivity for ERα or ERβ. […] 17β-estradiol is included as a standard reference for comparison. The procedure used is briefly described below. A crude lysate of E. coli expressing the estrogen receptor ligand binding domains (D, E, & F) of human ERα or ERβ was prepared. Both receptors and compounds were diluted in 1× Dulbecco's PBS (DPBS) supplemented with 1 mM EDTA. Using a high binding masked microtiter plate, 100 uL of receptor (1 uG/well) was combined with 2 nm [^3H]-17β-estradiol and various concentrations of compound. After between 5 and 15 hours at room temperature, the plates were washed with DPBS/1 mM EDTA and bound radioactivity determined by liquid scintillation counting. The IC50 is defined as the concentration of compound that decreases total 17β-estradiol binding by 50%.

human ERα = target: T2, human ERα (Homo sapiens, UniProt P03372); assay: Competition with [3H]-17β-estradiol for binding to ERα; settings: ligand binding domain of human ERα in E. coli crude lysate, 2 nM [3H]-17β-estradiol, 5-15 hours at room temperature
T2 construct: made in house; host or cells: E. coli (crude lysate)
T2 sequence (P03372 311-547 limits assumed): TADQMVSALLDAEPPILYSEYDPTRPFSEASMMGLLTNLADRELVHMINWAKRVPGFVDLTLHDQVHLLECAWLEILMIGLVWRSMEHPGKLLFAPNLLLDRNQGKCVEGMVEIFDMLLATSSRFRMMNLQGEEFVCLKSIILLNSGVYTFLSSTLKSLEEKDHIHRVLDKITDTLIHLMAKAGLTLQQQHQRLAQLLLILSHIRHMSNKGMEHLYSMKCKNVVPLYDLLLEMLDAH
Description: Representative examples of the invention were evaluated for their ability to compete with 17β-estradiol for both ERα and ERβ. This test procedure provides the methodology for one to determine whether a particular compound binds to the estrogen receptor (and is therefore “estrogenic”) and whether there is selectivity for ERα or ERβ. The values are shown in the Table infra and are reported as IC50s. 17β-estradiol is included as a standard reference for comparison. The procedure used is briefly described below. A crude lysate of E. coli expressing the estrogen receptor ligand binding domains (D, E, & F) of human ERα or ERβ was prepared. Both receptors and compounds were diluted in 1× Dulbecco's PBS (DPBS) supplemented with 1 mM EDTA. Using a high binding masked microtiter plate, 100 uL of receptor (1 uG/well) was combined with 2 nm [^3H]-17β-estradiol and various concentrations of compound. After between 5 and 15 hours at room temperature, the plates were washed with DPBS/1 mM EDTA and bound radioactivity determined by liquid scintillation counting. The IC50 is defined as the concentration of compound that decreases total 17β-estradiol binding by 50%.

T1 sequence (Q92731 264-498 limits assumed): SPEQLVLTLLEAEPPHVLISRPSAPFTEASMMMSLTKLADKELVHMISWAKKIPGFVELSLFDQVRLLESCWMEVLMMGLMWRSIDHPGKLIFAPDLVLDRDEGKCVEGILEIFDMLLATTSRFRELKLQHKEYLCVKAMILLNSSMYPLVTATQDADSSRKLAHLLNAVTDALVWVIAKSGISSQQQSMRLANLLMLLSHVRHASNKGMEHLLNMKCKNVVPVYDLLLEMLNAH

| IC50 (human ERβ) [nM] | melting point [°C] | IC50 (human ERα; read-out: ERα (nM) IC50) [nM] | IC50 (human ERα; read-out: ERα IC50 (cell prints uM)) [nM] | SMILES |
| --- | --- | --- | --- | --- |
| 4.1 | 238 to 240 | 137 |  | Cc1ccc(-c2c3c(cc4ccc(O)cc24)-c2ccc(O)cc2CO3)cc1 [Example 26, 7-(4-Tolyl)-5H-dibenzo[c,g]chromene-3,9-diol] |
| 2 |  | 44 |  | C=Cc1c2c(cc3ccc(O)cc13)-c1ccc(O)cc1CO2 [Example 16, 7-Vinyl-5H-dibenzo[c,g]chromene-3,9-diol] |
| 34 | 252 to 255 | 151 |  | Oc1ccc2c(c1)COc1c-2cc2ccc(O)cc2c1-c1cc(Cl)cc(Cl)c1 [Example 45, 7-(3,5-Dichlorophenyl)-5H-dibenzo[c,g]chromene-3,9-diol] |
| 6.4 | 229 to 232 | 298 |  | Oc1ccc2c(c1)COc1c-2cc2ccc(O)cc2c1-c1ccc(F)cc1 [Example 29, 7-(4-Fluorophenyl)-5H-dibenzo[c,g]chromene-3,9-diol] |
|  | > 220 |  |  | COc1ccncc1-c1c2c(cc3ccc(O)cc13)-c1ccc(O)cc1CO2 [Example 51, 7-(4-Methoxy-3-Pyridyl)-5H-dibenzo[c,g]chromene-3,9-diol] |
|  | 220 to 223 |  |  | Cc1cc(C)cc(-c2c3c(cc4ccc(O)cc24)-c2ccc(O)cc2CO3)c1 [Example 63, 7-(3,5-Dimethylphenyl)-5H-dibenzo[c,g]chromene-3,9-diol] |
| 835 | 143 to 145 |  |  | Oc1ccc2c(c1)COc1c-2cc2ccc(O)cc2c1-c1ccc(Cl)c(Cl)c1 [Example 55, 7-(3,4-Dichlorophenyl)-5H-dibenzo[c,g]chromene-3,9-diol] |
| 142 | 195 to 198 | 804 |  | CSc1ccc(-c2c3c(cc4ccc(O)cc24)-c2ccc(O)cc2CO3)cc1 [Example 56, 7-(4-Methylthiophenyl)-5H-dibenzo[c,g]chromene-3,9-diol] |
| 26 | 203 to 205 | 892 |  | CCc1ccc(-c2c3c(cc4ccc(O)cc24)-c2ccc(O)cc2CO3)cc1 [Example 62, 7-(4-Ethylphenyl)-5H-dibenzo[c,g]chromene-3,9-diol] |
| 40 | 110 to 112 | 661 |  | Oc1ccc2c(c1)COc1c-2cc2ccc(O)cc2c1-c1cccc(OC(F)(F)F)c1 [Example 58, 7-(3-Trifluoromethoxyphenyl)-5H-dibenzo[c,g]chromene-3,9-diol] |
| 9.3 | 239 to 242 | 320 |  | Oc1ccc2c(c1)COc1c-2cc2ccc(O)cc2c1-c1ccc(Cl)cc1 [Example 28, 7-(4-Chlorophenyl)-5H-dibenzo[c,g]chromene-3,9-diol] |
| 320 | 162 to 165 | 3480 |  | CC(C)(C)c1ccc(-c2c3c(cc4ccc(O)cc24)-c2ccc(O)cc2CO3)cc1 [Example 60, 7-(4-tert-Butylphenyl)-5H-dibenzo[c,g]chromene-3,9-diol] |
| 108 | > 220 | > 5000 |  | Oc1ccc2c(c1)COc1c-2cc2ccc(O)cc2c1-c1ccccn1 [Example 54, 7-(2-Pyridyl)-5H-dibenzo[c,g]chromene-3,9-diol] |
| 10 | 238 to 240 | 70 |  | Oc1ccc2c(c1)COc1c-2cc2ccc(O)cc2c1-c1cc(F)cc(F)c1 [Example 44, 7-(3,5-Difluorophenyl)-5H-dibenzo[c,g]chromene-3,9-diol] |
| 4.2 | 219 to 222 | 117 |  | Cc1cccc(-c2c3c(cc4ccc(O)cc24)-c2ccc(O)cc2CO3)c1 [Example 25, 7-(3-Tolyl)-5H-dibenzo[c,g]chromene-3,9-diol] |
| 9.7 | 220 to 222 | 26 |  | Oc1ccc2c(c1)COc1c-2cc2ccc(O)cc2c1-c1ccccc1Cl [Example 35, 7-(2-Chlorophenyl)-5H-dibenzo[c,g]chromene-3,9-diol] |
| 4.3 |  | 169 |  | COc1c2c(cc3ccc(O)cc13)-c1ccc(O)cc1CO2 [Example 15, 7-Methoxy-5H-dibenzo[c,g]chromene-3,9-diol] |

| IC50 (human ERβ) [nM] | melting point [°C] | IC50 (human ERα; read-out: ERα (nM) IC50) [nM] | IC50 (human ERα; read-out: ERα IC50 (cell prints uM)) [nM] | SMILES |
| --- | --- | --- | --- | --- |
| 22 | 218 to 221 | 608 |  | Cc1ccc(-c2c3c(cc4ccc(O)cc24)-c2ccc(O)cc2CO3)cc1C [Example 39, 7-(3,4-Dimethylphenyl)-5H-dibenzo[c,g]chromene-3,9-diol] |
| 18 | 243 to 246 | 63 |  | Oc1ccc2c(c1)COc1c-2cc2ccc(O)cc2c1-c1cccc(Cl)c1 [Example 33, 7-(3-Chlorophenyl)-5H-dibenzo[c,g]chromene-3,9-diol] |
| 4.1 | 225 to 227 | 137 |  | Oc1ccc2c(c1)COc1c-2cc2ccc(O)cc2c1-c1ccccc1 [Example 23, 7-Phenyl-5H-dibenzo[c,g]chromene-3,9-diol] |
| 3.05 |  |  | > 5000 | Oc1ccc2c(c1)COc1c-2cc2ccc(O)cc2c1-c1ccncc1 [Example 37, 7-(4-Pyridyl)-5H-dibenzo[c,g]chromene-3,9-diol] |
| 2.7 | > 280 | 32 |  | N#Cc1c2c(cc3ccc(O)cc13)-c1ccc(O)cc1CO2 [Example 14, 3,9-Dihydroxy-5H-dibenzo[c,g]chromene-7-carbonitrile] |
| 3.3 |  | 12 |  | COc1c2c(c(Br)c3ccc(O)cc13)-c1ccc(O)cc1CO2 [Example 19, 12-Bromo-7-methoxy-5H-dibenzo[c,g]chromene-3,9-diol] |
|  | 199 to 201 |  |  | Oc1ccc2c(c1)COc1ccc3ccc(O)cc3c1-2 [Example 5, 5H-Dibenzo[c,f]chromene-3,11-diol] |
| 9.2 | > 250 | 162 |  | N#Cc1ccc(-c2c3c(cc4ccc(O)cc24)-c2ccc(O)cc2CO3)cc1 [Example 40, 7-(4-Cyanophenyl)-5H-dibenzo[c,g]chromene-3,9-diol] |
| 1.4 | 233 to 236 | 75 |  | Oc1ccc2c(c1)COc1c-2cc2ccc(O)cc2c1-c1cccs1 [Example 30, 7-Thien-2-yl-5H-dibenzo[c,g]chromene-3,9-diol] |
| 7.9 | 231 to 233 | 63 |  | Oc1ccc2c(c1)COc1cc3cc(O)ccc3cc1-2 [Example 4, 5H-Dibenzo[c,g]chromene-3,9-diol] |
|  |  | 172 |  | Oc1ccc2c(c1)COc1c-2cc2ccc(O)cc2c1-c1cccc2ccccc12 [Example 61, 7-(Naphthyl)-5H-dibenzo[c,g]chromene-3,9-diol] |
| 14 | > 250 | 1360 |  | Oc1ccc2c(c1)COc1c-2cc2ccc(O)cc2c1-c1cccnc1 [Example 50, 7-(3-Pyridinyl)-5H-dibenzo[c,g]chromene-3,9-diol] |
| 1.2 |  | 13 |  | Oc1ccc2c(c1)COc1c-2cc2ccc(O)cc2c1Br [Example 13, 7-Bromo-5H-dibenzo[c,g]chromene-3,9-diol] |
| 60 |  | 1600 |  | Oc1ccc2c(c1)COc1c-2cc2ccc(O)cc2c1-c1ncccn1 [Example 52, 7-(Pyrimidyl)-5H-dibenzo[c,g]chromene-3,9-diol] |
| 1.4 |  | 13 |  | COc1c2c(c(Cl)c3ccc(O)cc13)-c1ccc(O)cc1CO2 [Example 20, 12-Chloro-7-methoxy-5H-dibenzo[c,g]chromene-3,9-diol] |
| 1.5 |  | 15 |  | Oc1ccc2c(c1)COc1c-2cc2ccc(O)cc2c1Cl [Example 12, 7-Chloro-5H-dibenzo[c,g]chromene-3,9-diol] |
|  | > 250 |  |  | Oc1ccc2c(c1)COc1c-2cc2ccc(O)cc2c1-c1ccncc1 (as salt: HCl) [Example 37, 7-(4-Pyridyl)-5H-dibenzo[c,g]chromene-3,9-diol] |

| SMILES | IC50 (human ERβ) [nM] | melting point [°C] | IC50 (human ERα; read-out: ERα (nM) IC50) [nM] | IC50 (human ERα; read-out: ERα IC50 (cell prints uM)) [nM] |
| --- | --- | --- | --- | --- |
| COc1ccc(-c2c3c(cc4ccc(O)cc24)-c2ccc(O)cc2CO3)cn1 [Example 51] | 22 |  | 764 |  |
